{
  "source": "paper PMC4022186",
  "about": "(Biochemistry, 2012)",
  "key": {"[1]": {"target": "T1, E. coli QueD (CPH4 synthase) (Escherichia coli, UniProt P65870)", "T1 sequence (P65870 whole entry)": "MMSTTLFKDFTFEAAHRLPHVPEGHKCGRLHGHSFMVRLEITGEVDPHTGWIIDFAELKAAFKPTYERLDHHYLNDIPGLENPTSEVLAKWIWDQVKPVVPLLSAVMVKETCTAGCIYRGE", "test": "preparative conversion to [[…]-2H]-CPH4", "type": "biochemical", "details": "5 mM sepiapterin, 15 μM QueD, 20 mM PIPES, 99.9% D2O, 20 h"}, "[2]": {"target": "T1, E. coli QueD (CPH4 synthase)", "test": "preparative conversion to [7R-D]-CPH4", "type": "biochemical", "details": "5 μM QueD, 20 mM PIPES pH 7.4, 10 mM DTT, 18 h, H2O"}},
  "data": [
    {"smiles": "C[C@H](O)C(=O)C1=Nc2c(nc(N)[nH]c2=O)NC1", "note": "[sepiapterin]", "values": [
      {"measurement": "preparative conversion to [6-2H]-CPH4; FT-ICR MS of product", "setting": "[1]", "value": "this reaction was used to prepare CPH4 containing deuterium at C-6"}
    ]},
    {"smiles": "Nc1nc2c(c(=O)[nH]1)N=C([C@H](O)[C@H](O)COP(=O)(O)OP(=O)(O)OP(=O)(O)O)CN2", "note": "[H2NTP]", "values": [
      {"measurement": "preparative conversion to [7R-D]-CPH4; FT-ICR MS of product", "setting": "[2]", "value": "The resulting H2NTP was converted to CPH4 in a reaction mixture"}
    ]}
  ]
}
